US9598423B2 (BRISTOL-MYERS SQUIBB COMPANY, priority 2013, dated 2017)

How the values were obtained:
[1] = target: CK1δ (Homo sapiens (Human), UniProt P48730); assay: CK1δ kinase assay (Caliper LABCHIP electrophoretic separation of fluoresceinated peptide substrate and product); type: biochemical; conditions: 200 pM CK1δ, 50 μM ATP, 1.5 μM peptide substrate, 22 hours at room temperature; read-out: CK1δ (IC50)
Procedure: (§1) CK1ε and CK1δ Kinase Assays
(§2) The kinase assay was performed in V-bottom 384-well plates. […] The reaction was incubated at room temperature for 22 hours and terminated by adding 45 μl of 35 mM EDTA to each sample. The reaction mixture was analyzed on the Caliper LABCHIP®3000 (Caliper, Hopkinton, Mass.) by electrophoretic separation of the unphosphorylated substrate and phosphorylated product. […] Compounds were dissolved at 10 mM in dimethylsulfoxide (DMSO) and evaluated at eleven concentrations. IC50 values were derived by non-linear regression analysis.

[2] = target: CK1ε (Homo sapiens (Human), UniProt P49674); assay: CK1ε kinase assay (Caliper LABCHIP electrophoretic separation of fluoresceinated peptide substrate and product); type: biochemical; conditions: 200 pM CK1ε, 50 μM ATP, 1.5 μM peptide substrate, 22 hours at room temperature; read-out: CK1ε (IC50)
Procedure: as §1, §2

Sequence of CK1δ (P48730 whole entry): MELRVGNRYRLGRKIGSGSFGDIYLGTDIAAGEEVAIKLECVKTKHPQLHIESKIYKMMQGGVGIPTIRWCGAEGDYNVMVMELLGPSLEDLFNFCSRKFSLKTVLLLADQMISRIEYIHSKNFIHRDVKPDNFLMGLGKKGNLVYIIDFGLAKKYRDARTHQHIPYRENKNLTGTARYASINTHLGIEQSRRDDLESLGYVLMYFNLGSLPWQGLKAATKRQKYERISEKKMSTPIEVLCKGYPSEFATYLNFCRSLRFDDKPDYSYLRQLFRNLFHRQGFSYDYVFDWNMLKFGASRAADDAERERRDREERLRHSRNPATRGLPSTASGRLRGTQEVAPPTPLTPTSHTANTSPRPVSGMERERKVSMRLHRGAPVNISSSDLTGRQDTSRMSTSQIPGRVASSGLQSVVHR
Sequence of CK1ε (P49674 whole entry): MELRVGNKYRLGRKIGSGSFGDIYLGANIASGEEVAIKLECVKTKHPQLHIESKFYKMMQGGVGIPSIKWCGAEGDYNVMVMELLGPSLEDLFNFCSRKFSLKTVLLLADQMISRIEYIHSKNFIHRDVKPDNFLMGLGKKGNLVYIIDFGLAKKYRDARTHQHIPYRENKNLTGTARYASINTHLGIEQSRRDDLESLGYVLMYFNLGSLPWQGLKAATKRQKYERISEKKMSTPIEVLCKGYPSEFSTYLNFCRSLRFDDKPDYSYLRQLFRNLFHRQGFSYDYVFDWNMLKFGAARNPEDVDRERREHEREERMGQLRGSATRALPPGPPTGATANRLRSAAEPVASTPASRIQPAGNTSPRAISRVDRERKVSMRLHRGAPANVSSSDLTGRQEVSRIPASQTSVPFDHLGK

SMILES | IC50 [1] | IC50 [2]
N#Cc1ccc(NC(=O)N2Cc3c(C(N)=O)c(-c4ccc(F)c(Cl)c4)nn3CC2C(F)(F)F)cc1 (single isomer, unassigned) [Compound 335, 2-(3-Chloro-4-fluorophenyl)-N^5-(4-cyanophenyl)-6-(trifluoromethyl)-6,7-dihydropyrazolo[1,5-a]pyrazine-3,5(4H)-dicarboxamide] | 100 to 2000 nM | 100 to 2000 nM
N#Cc1ccc(NC(=O)N2Cc3c(C(N)=O)c(-c4ccc(F)c(Cl)c4)nn3CC2C(F)(F)F)cc1 (single isomer, unassigned) [Compound 336, 2-(3-Chloro-4-fluorophenyl)-N^5-(4-cyanophenyl)-6-(trifluoromethyl)-6,7-dihydropyrazolo[1,5-a]pyrazine-3,5(4H)-dicarboxamide] | 0.01 to 10 nM | 0.01 to 10 nM
N#Cc1ccc(NC(=O)N2Cc3c(C(N)=O)c(-c4ccc(F)c(Cl)c4)nn3CC2C2CC2)cc1 (single isomer, unassigned) [Compound 342] | 0.01 to 10 nM | 0.01 to 10 nM
N#Cc1ccc(NC(=O)N2Cc3c(C(N)=O)c(-c4ccc(F)c(Cl)c4)nn3C(C(=O)NC3CCOCC3)C2)cc1 (single isomer, unassigned) [Compound A28, 2-(3-Chloro-4-fluorophenyl)-N^5-(4-cyanophenyl)-N^7-(tetrahydro-2H-pyran-4-yl)-6,7-dihydropyrazolo[1,5-a]pyrazine-3,5,7(4H)-tricarboxamide] | 10 to 100 nM | 10 to 100 nM
N#Cc1ccc(NC(=O)N2Cc3c(C(N)=O)c(-c4ccc(F)c(Cl)c4)nn3C(C(=O)NC3CCOCC3)C2)cc1 (single isomer, unassigned) [Compound A29, 2-(3-Chloro-4-fluorophenyl)-N^5-(4-cyanophenyl)-N^7-(tetrahydro-2H-pyran-4-yl)-6,7-dihydropyrazolo[1,5-a]pyrazine-3,5,7(4H)-tricarboxamide] | 10 to 100 nM | 10 to 100 nM
NC(=O)c1c(-c2cccc(F)c2)nn2c1CN(C(=O)NC1C[C@H]1c1ccccc1)CC2 (stereo in doubt) [Compound 44, 2-(3-Fluorophenyl)-N^5-((1R,2S)-2-phenylcyclopropyl)-6,7-dihydropyrazolo[1,5-a]pyrazine-3,5(4H)-dicarboxamide] | 0.01 to 10 nM | 10 to 100 nM
NC(=O)c1c(-c2cccc(F)c2)nn2c1CN(C(=O)NC1CCCC1)CC2 [Compound 9, N^5-Cyclopentyl-2-(3-fluorophenyl)-6,7-dihydropyrazolo[1,5-a]pyrazine-3,5(4H)-dicarboxamide] | 0.01 to 10 nM | 0.01 to 10 nM
NC(=O)c1c(-c2cccc(F)c2)nn2c1CN(C(=O)NC13CC4CC(CC(C4)C1)C3)CC2 [Compound 22, N^5-(Adamantan-1-yl)-2-(3-fluorophenyl)-6,7-dihydropyrazolo[1,5-a]pyrazine-3,5(4H)-dicarboxamide] | 0.01 to 10 nM | 0.01 to 10 nM
NC(=O)c1c(-c2cccc(F)c2)nn2c1CN(C(=O)Nc1cc(F)cc(F)c1)CC2 [Compound 31, N^5-(3,5-Difluorophenyl)-2-(3-fluorophenyl)-6,7-dihydropyrazolo[1,5-a]pyrazine-3,5(4H)-dicarboxamide] | 0.01 to 10 nM | 0.01 to 10 nM
N#Cc1ccc(NC(=O)N2CCn3nc(-c4cccc(F)c4)c(C(N)=O)c3C2)cc1C(F)(F)F [Compound 38, N^5-(4-Cyano-3-(trifluoromethyl)phenyl)-2-(3-fluorophenyl)-6,7-dihydropyrazolo[1,5-a]pyrazine-3,5(4H)-dicarboxamide] | 0.01 to 10 nM | 0.01 to 10 nM
NC(=O)c1c(-c2cccc(F)c2)nn2c1CN(C(=O)NCc1ccc(Cl)cc1Cl)CC2 [Compound 45, N^5-(2,4-Dichlorobenzyl)-2-(3-fluorophenyl)-6,7-dihydropyrazolo[1,5-a]pyrazine-3,5(4H)-dicarboxamide] | 0.01 to 10 nM | 0.01 to 10 nM
NC(=O)c1c(-c2cccc(F)c2)nn2c1CN(C(=O)Nc1ccc(Cl)c(Cl)c1)CC2 [Compound 49, N^5-(3,4-Dichlorophenyl)-2-(3-fluorophenyl)-6,7-dihydropyrazolo[1,5-a]pyrazine-3,5(4H)-dicarboxamide] | 0.01 to 10 nM | 0.01 to 10 nM
NC(=O)c1c(-c2cccc(F)c2)nn2c1CN(C(=O)Nc1cccc(C(F)(F)F)c1)CC2 [Compound 50, 2-(3-Fluorophenyl)-N^5-(3-(trifluoromethyl)phenyl)-6,7-dihydropyrazolo[1,5-a]pyrazine-3,5(4H)-dicarboxamide] | 0.01 to 10 nM | 0.01 to 10 nM

The next lines start with the values.

IC50 [1] | IC50 [2] | SMILES
0.01 to 10 nM | 0.01 to 10 nM | CC1Cn2nc(-c3ccc(F)c(Cl)c3)c(C(N)=O)c2CN1C(=O)Nc1ccc(C#N)cc1 (single isomer, unassigned) [Compound 329, 2-(3-Chloro-4-fluorophenyl)-N^5-(4-cyanophenyl)-6-methyl-6,7-dihydropyrazolo[1,5-a]pyrazine-3,5(4H)-dicarboxamide]
0.01 to 10 nM | 0.01 to 10 nM | CC1Cn2nc(-c3ccc(F)c(Cl)c3)c(C(N)=O)c2CN1C(=O)Nc1ccc(C#N)cc1 (single isomer, unassigned) [Compound 330, 2-(3-Chloro-4-fluorophenyl)-N^5-(4-cyanophenyl)-6-methyl-6,7-dihydropyrazolo[1,5-a]pyrazine-3,5(4H)-dicarboxamide]
0.01 to 10 nM | 0.01 to 10 nM | CC1Cn2nc(-c3cccc(Cl)c3)c(C(N)=O)c2CN1C(=O)Nc1ccc(C#N)cc1 (single isomer, unassigned) [Compound 331, 2-(3-Chlorophenyl)-N^5-(4-cyanophenyl)-6-methyl-6,7-dihydropyrazolo[1,5-a]pyrazine-3,5(4H)-dicarboxamide]
0.01 to 10 nM | 0.01 to 10 nM | CC1Cn2nc(-c3cccc(Cl)c3)c(C(N)=O)c2CN1C(=O)Nc1ccc(C#N)cc1 (single isomer, unassigned) [Compound 332, 2-(3-Chlorophenyl)-N^5-(4-cyanophenyl)-6-methyl-6,7-dihydropyrazolo[1,5-a]pyrazine-3,5(4H)-dicarboxamide]
0.01 to 10 nM | 0.01 to 10 nM | CC1Cn2nc(-c3ccc(Cl)c(Cl)c3)c(C(N)=O)c2CN1C(=O)Nc1ccc(C#N)cc1 (single isomer, unassigned) [Compound 333, N^5-(4-Cyanophenyl)-2-(3,4-dichlorophenyl)-6-methyl-6,7-dihydropyrazolo[1,5-a]pyrazine-3,5(4H)-dicarboxamide]
0.01 to 10 nM | 0.01 to 10 nM | CC1Cn2nc(-c3ccc(Cl)c(Cl)c3)c(C(N)=O)c2CN1C(=O)Nc1ccc(C#N)cc1 (single isomer, unassigned) [Compound 334, N^5-(4-Cyanophenyl)-2-(3,4-dichlorophenyl)-6-methyl-6,7-dihydropyrazolo[1,5-a]pyrazine-3,5(4H)-dicarboxamide]
0.01 to 10 nM | 0.01 to 10 nM | CC(C)(O)[C@@H]1CN(C(=O)Nc2ccc(C#N)cc2)Cc2c(C(N)=O)c(-c3ccc(Cl)c(Cl)c3)nn21 (single isomer, unassigned) [Compound A34, N^5-(4-Cyanophenyl)-2-(3,4-dichlorophenyl)-7-(2-hydroxypropan-2-yl)-6,7-dihydropyrazolo[1,5-a]pyrazine-3,5(4H)-dicarboxamide]
0.01 to 10 nM | 0.01 to 10 nM | CC(C)(O)[C@H]1CN(C(=O)Nc2ccc(C#N)cc2)Cc2c(C(N)=O)c(-c3ccc(Cl)c(Cl)c3)nn21 (single isomer, unassigned) [Compound A35, N^5-(4-Cyanophenyl)-2-(3,4-dichlorophenyl)-7-(2-hydroxypropan-2-yl)-6,7-dihydropyrazolo[1,5-a]pyrazine-3,5(4H)-dicarboxamide]
0.01 to 10 nM | 0.01 to 10 nM | C[C@H]1CN(C(=O)Nc2ccc(C#N)cc2)Cc2c(C(N)=O)c(-c3cccc(F)c3)nn21 (single isomer, unassigned) [Compound A78, N^5-(4-Cyanophenyl)-2-(3-fluorophenyl)-7-methyl-6,7-dihydropyrazolo[1,5-a]pyrazine-3,5(4H)-dicarboxamide]
100 to 2000 nM | 100 to 2000 nM | CC1CN(C(=O)Nc2ccc(C#N)cc2)Cc2c(C(N)=O)c(-c3cccc(F)c3)nn21 (single isomer, unassigned) [Compound A79, N^5-(4-Cyanophenyl)-2-(3-fluorophenyl)-7-methyl-6,7-dihydropyrazolo[1,5-a]pyrazine-3,5(4H)-dicarboxamide]
0.01 to 10 nM | 0.01 to 10 nM | NC(=O)c1c(-c2cccc(F)c2)nn2c1CN(C(=O)Nc1ccc(Cl)cc1)CC2 [Compound 10, N^5-(4-Chlorophenyl)-2-(3-fluorophenyl)-6,7-dihydropyrazolo[1,5-a]pyrazine-3,5(4H)-dicarboxamide]
0.01 to 10 nM | 0.01 to 10 nM | NC(=O)c1c(-c2cccc(F)c2)nn2c1CN(C(=O)Nc1ccc(F)cc1)CC2 [Compound 16, 2-(3-Fluorophenyl)-N^5-(4-fluorophenyl)-6,7-dihydropyrazolo[1,5-a]pyrazine-3,5(4H)-dicarboxamide]
0.01 to 10 nM | 0.01 to 10 nM | NC(=O)c1c(-c2cccc(F)c2)nn2c1CN(C(=O)Nc1ccc(C(F)(F)F)cc1)CC2 [Compound 21, 2-(3-Fluorophenyl)-N^5-(4-(trifluoromethyl)phenyl)-6,7-dihydropyrazolo[1,5-a]pyrazine-3,5(4H)-dicarboxamide]
0.01 to 10 nM | 0.01 to 10 nM | COc1ccc(NC(=O)N2CCn3nc(-c4cccc(F)c4)c(C(N)=O)c3C2)cc1 [Compound 51, 2-(3-Fluorophenyl)-N^5-(4-methoxyphenyl)-6,7-dihydropyrazolo[1,5-a]pyrazine-3,5(4H)-dicarboxamide]
